Structures can show the parent of a compound that is named as a salt.
What was measured:
Type in all cases: cell-based
[1] = test system: Klebsiella pneumoniae XNWB 0002; test: MIC assay of test compounds combined with ceftazidime (8 μg/mL); conditions: ceftazidime 8 μg/mL fixed
Procedure, shortened: (§1)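 Each compound was titrated in CAMHB in the presence of a constant partner antibiotic and challenged with a bacterial suspension prepared to OD600 0.1-0.15 in saline, then diluted 300-fold. Incubation lasted 16-20 h at 35±2 °C in air.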

[2] = test system: Pseudomonas aeruginosa XNWB 0008; test: as above; conditions: ceftazidime 8 μg/mL fixed
Procedure, shortened: as §1

[3] = test system: Klebsiella pneumoniae XNWB 0003; test: as above; conditions: ceftazidime 8 μg/mL fixed
Procedure, shortened: as §1

[4] = test system: Acinetobacter baumannii XNWB 0007; test: as above; conditions: ceftazidime 8 μg/mL fixed
Procedure, shortened: as §1

[5] = test system: Klebsiella pneumoniae XNWB 0005; test: as above; conditions: ceftazidime 8 μg/mL fixed
Procedure, shortened: as §1

[6] = test system: Klebsiella pneumoniae XNWB 0006; test: as above; conditions: ceftazidime 8 μg/mL fixed
Procedure, shortened: as §1

[7] = test system: Klebsiella pneumoniae XNWB 0001; test: as above; conditions: ceftazidime 8 μg/mL fixed
Procedure, shortened: as §1

[8] = test system: Klebsiella pneumoniae XNWB 0004; test: as above; conditions: ceftazidime 8 μg/mL fixed
Procedure, shortened: as §1

[9] = test system: Klebsiella pneumoniae XNWB 0002; test: MIC assay of test compounds combined with imipenem (4 μg/mL); conditions: imipenem 4 μg/mL fixed
Procedure, shortened: as §1

[10] = test system: Pseudomonas aeruginosa XNWB 0008; test: as above; conditions: imipenem 4 μg/mL fixed
Procedure, shortened: as §1

[11] = test system: Klebsiella pneumoniae XNWB 0003; test: as above; conditions: imipenem 4 μg/mL fixed
Procedure, shortened: as §1

[12] = test system: Acinetobacter baumannii XNWB 0007; test: as above; conditions: imipenem 4 μg/mL fixed
Procedure, shortened: as §1

[13] = test system: Klebsiella pneumoniae XNWB 0005; test: as above; conditions: imipenem 4 μg/mL fixed
Procedure, shortened: as §1

[14] = test system: Klebsiella pneumoniae XNWB 0006; test: as above; conditions: imipenem 4 μg/mL fixed
Procedure, shortened: as §1

[15] = test system: Klebsiella pneumoniae XNWB 0001; test: as above; conditions: imipenem 4 μg/mL fixed
Procedure, shortened: as §1

[16] = test system: Klebsiella pneumoniae XNWB 0004; test: as above; conditions: imipenem 4 μg/mL fixed
Procedure, shortened: as §1

| SMILES | The minimum concentration of test compounds combined with ceftazidime (8 μg/mL) for bacteriostasis [1] | The minimum concentration of test compounds combined with ceftazidime (8 μg/mL) for bacteriostasis [2] | The minimum concentration of test compounds combined with ceftazidime (8 μg/mL) for bacteriostasis [3] | The minimum concentration of test compounds combined with ceftazidime (8 μg/mL) for bacteriostasis [4] | The minimum concentration of test compounds combined with ceftazidime (8 μg/mL) for bacteriostasis [5] | The minimum concentration of test compounds combined with ceftazidime (8 μg/mL) for bacteriostasis [6] | The minimum concentration of test compounds combined with ceftazidime (8 μg/mL) for bacteriostasis [7] | The minimum concentration of test compounds combined with ceftazidime (8 μg/mL) for bacteriostasis [8] | The minimum concentration of test compounds combined with imipenem (4 μg/mL) for bacteriostasis [9] | The minimum concentration of test compounds combined with imipenem (4 μg/mL) for bacteriostasis [10] | The minimum concentration of test compounds combined with imipenem (4 μg/mL) for bacteriostasis [11] | The minimum concentration of test compounds combined with imipenem (4 μg/mL) for bacteriostasis [12] | The minimum concentration of test compounds combined with imipenem (4 μg/mL) for bacteriostasis [13] | The minimum concentration of test compounds combined with imipenem (4 μg/mL) for bacteriostasis [14] | The minimum concentration of test compounds combined with imipenem (4 μg/mL) for bacteriostasis [15] | The minimum concentration of test compounds combined with imipenem (4 μg/mL) for bacteriostasis [16] |
| --- | --- | --- | --- | --- | --- | --- | --- | --- | --- | --- | --- | --- | --- | --- | --- | --- |
| N=C(N)NCc1cc([C@@H]2CC3(CC3)[C@@H]3CN2C(=O)N3OS(=O)(=O)O)no1 [Example 34, (1R,4S)-4-(5-(guanidinomethyl)isoxazol-3-yl)-6-oxo-5,7-diazaspiro[bicyclo[3.2.1]octane-2,1′-cyclopropan]-7-yl sulfate] | A (A: <8 μg/mL) | C (C: 16-128 μg/mL) | A (A: <8 μg/mL) | C (C: 16-128 μg/mL) | B (B: 8-16 μg/mL) | A (A: <8 μg/mL) | A (A: <8 μg/mL) | B (B: 8-16 μg/mL) | A (A: <8 μg/mL) | B (B: 8-16 μg/mL) | A (A: <8 μg/mL) | B (B: 8-16 μg/mL) | A (A: <8 μg/mL) | A (A: <8 μg/mL) | A (A: <8 μg/mL) | A (A: <8 μg/mL) |
| N=C(N)NCCc1nnc([C@@H]2CC3(CC3)[C@@H]3CN2C(=O)N3OS(=O)(=O)O)o1 [Example 5, (1R,4S)-4-(5-(2-guanidinoethyl)-1,3,4-oxadiazol-2-yl)-6-oxo-5,7-diazaspiro[bicycle [3.2.1]octane-2,1′-cyclopropan]-7-yl sulfate] | A (A: <8 μg/mL) | C (C: 16-128 μg/mL) | A (A: <8 μg/mL) | C (C: 16-128 μg/mL) | B (B: 8-16 μg/mL) | A (A: <8 μg/mL) | A (A: <8 μg/mL) | B (B: 8-16 μg/mL) | A (A: <8 μg/mL) | B (B: 8-16 μg/mL) | A (A: <8 μg/mL) | B (B: 8-16 μg/mL) | A (A: <8 μg/mL) | A (A: <8 μg/mL) | A (A: <8 μg/mL) | A (A: <8 μg/mL) |
| CN(CCc1cc([C@@H]2CC3(CC3)[C@@H]3CN2C(=O)N3OS(=O)(=O)O)no1)C(=N)N [Example 37, (1R,4S)-4-(5-(2-(1-methylguanidino)ethyl)isoxazol-3-yl)-6-oxo-5,7-diazaspiro[bicycle [3.2.1]octane-2,1′-cyclopropan]-7-yl sulfate] | A (A: <8 μg/mL) | C (C: 16-128 μg/mL) | B (B: 8-16 μg/mL) | C (C: 16-128 μg/mL) | A (A: <8 μg/mL) | A (A: <8 μg/mL) | A (A: <8 μg/mL) | B (B: 8-16 μg/mL) | A (A: <8 μg/mL) | B (B: 8-16 μg/mL) | A (A: <8 μg/mL) | C (C: 16-128 μg/mL) | A (A: <8 μg/mL) | A (A: <8 μg/mL) | A (A: <8 μg/mL) | A (A: <8 μg/mL) |
| N[C@H]1C[C@H](c2cc([C@@H]3CC4(CC4)[C@@H]4CN3C(=O)N4OS(=O)(=O)O)no2)C1 [Example 25, (1R,4S)-4-(5-((1S,3S)-3-aminocyclobutyl)isoxazol-3-yl)-6-oxo-5,7-diazaspiro[bicycle [3.2.1]octane-2,1′-cyclopropan]-7-yl sulfate] | A (A: <8 μg/mL) | B (B: 8-16 μg/mL) | A (A: <8 μg/mL) | C (C: 16-128 μg/mL) | A (A: <8 μg/mL) | A (A: <8 μg/mL) | A (A: <8 μg/mL) | B (B: 8-16 μg/mL) | A (A: <8 μg/mL) | A (A: <8 μg/mL) | A (A: <8 μg/mL) | C (C: 16-128 μg/mL) | A (A: <8 μg/mL) | A (A: <8 μg/mL) | A (A: <8 μg/mL) | A (A: <8 μg/mL) |
| N=C(N)NCC(O)c1nnc([C@@H]2CC3(CC3)[C@@H]3CN2C(=O)N3OS(=O)(=O)O)o1 (stereo partly drawn) [Example 10, (1R,4S)-4-(5-(2-guanidyl-1-hydroxyethyl)-1,3,4-oxadiazol-2-yl)-6-oxo-5,7-diazaspiro [bicyclo[3.2.1]octane-2,1′-cyclopropan]-7-yl sulfate] | A (A: <8 μg/mL) | B (B: 8-16 μg/mL) | A (A: <8 μg/mL) | C (C: 16-128 μg/mL) | A (A: <8 μg/mL) | A (A: <8 μg/mL) | A (A: <8 μg/mL) | A (A: <8 μg/mL) | A (A: <8 μg/mL) | A (A: <8 μg/mL) | A (A: <8 μg/mL) | A (A: <8 μg/mL) | A (A: <8 μg/mL) | A (A: <8 μg/mL) | A (A: <8 μg/mL) | A (A: <8 μg/mL) |
